For 16 molecules, Ki results are on record in patent US20070099927A1, “Aminoalkyl-pyrazinones and-pyridones as thrombin inhibitors” (priority 2003, published 2007).

By Ki is commonly meant the dissociation constant of the complex between target and ligand, obtained from inhibition or displacement. Low values mean tighter binding, high ones weaker binding.

Some results are limits rather than exact numbers.

The target of the experiment is thrombin (Homo sapiens, UniProt P00734). Put plainly: Ki determinations thrombin, fluorogenic substrate Tosyl-GPR-AMC. Particulars: 20° C., thrombin 100 pM, Tosyl-GPR-AMC 20 μM, HBS pH 7.4; Ki class. It counts as biochemical. On the procedure: The Ki determinations were carried out at 20° C. with the fluorogenic substrate Tosyl-GPR-AMC (Bachem, Heidelberg, Germany; λexc=370 nm, λem=450 nm) at a thrombin concentration of 100 pM in HBS pH 7.4. The substrate was added to a final concentration of 20 μM in a total assay volume of 100 μl. The enzymatic reaction was started by addition of substrate. The emission at 450 nm was monitored in 1 minute intervals for 10 minutes using a polarstar reader (BMG Laboratories, Offenburg, Germany). Initial velocities of the control and the inhibited reactions (vo and vi) were estimated in FU/min at different compound concentrations. The inhibition constants were calculated using the Michaelis-Menten equation for competitive inhibition.
As to `Cc1cnc(NCC(F)(F)C2CCCCN2)c(=O)n1CCNCc1n[nH]c2ccc(Cl)cc12` (single isomer, unassigned) [85 (E1)], the Ki is less than 0.005 µM.

With `Cc1cnc(NCCC2CCCCN2C)c(=O)n1CCNCc1n[nH]c2ccc(Cl)cc12` (single isomer, unassigned) [95 (E1), 1-{2-[(5-Chloro-1H-indazol-3-ylmethyl)-amino]-ethyl}-6-methyl-3-[2-(1-methyl-piperidin-2-yl)-ethylamino]-1H-pyrazin-2-one], the Ki is less than 0.005 µM.

In turn, `Cc1cnc(NCCC2CCCCN2C)c(=O)n1CCNCc1n[nH]c2ccc(Cl)cc12` (single isomer, unassigned) [95 (E2), 1-{2-[(5-Chloro-1H-indazol-3-ylmethyl)-amino]-ethyl}-6-methyl-3-[2-(1-methyl-piperidin-2-yl)-ethylamino]-1H-pyrazin-2-one] registered a Ki of less than 0.005 µM.

The molecule `O=c1c(NCCC2CCCCN2)ncc(Cl)n1CCNCc1n[nH]c2ccc(Cl)cc12` (single isomer, unassigned) [101 (E2), 6-Chloro-1-{2-[(5-chloro-1H-indazol-3-ylmethyl)-amino]-ethyl}-3-(2-piperidin-2-yl-ethylamino)-1H-pyrazin-2-one] came in with a Ki of less than 0.005 µM.

Regarding `Cc1nc(N)ccc1CNCCn1c(Cl)cnc(NCC(F)(F)c2ccccn2)c1=O` [Example 52], the Ki was in the range of 0.03 to 0.2 µM.

In the case of `Cc1cnc(NCCNc2ccccn2)c(=O)n1CCNCc1cccc(Cl)c1` [Example 56], the inhibition constant Ki fell in the range of 0.03 to 0.2 µM.

Regarding `Cc1cnc(NC(Cc2ccccc2)C(N)=O)c(=O)n1CCNCCc1cccc(Cl)c1` (stereo not shown) [Example 59], the Ki lay within 0.03 to 0.2 µM.

`O=c1c(NCC(F)(F)c2ccccn2)ncc(Cl)n1CCNCc1n[nH]c2ccc(Cl)cc12` [Example 74]: the Ki is less than 0.005 µM.

`O=c1c(NCC(F)(F)c2cccc[n+]2[O-])ncc(Cl)n1CCNCc1n[nH]c2ccc(Cl)cc12` [Example 82] came in with a Ki of less than 0.005 µM.

`O=c1c(NCC(F)(F)c2cccc[n+]2[O-])ncc(Cl)n1CCNCCc1cccc(Cl)c1` [Example 83] showed a Ki of less than 0.005 µM.

`Cc1nc(N)ccc1CNCCn1c(Cl)cnc(NCC(F)(F)c2cccc[n+]2[O-])c1=O` [Example 84] showed a Ki of 0.005 to 0.03 µM.

Take `O=c1c(NCCc2ccccn2)ncc(Cl)n1CCNCc1n[nH]c2ccc(Cl)cc12` [Example 92]: the Ki is less than 0.005 µM.

Turning to `NC(=O)CN1CCCCC1CCNc1ncc(Cl)n(CCNCc2n[nH]c3ccc(Cl)cc23)c1=O` (stereo not shown) [Example 96, 2-{2-[2-(5-Chloro-4-{2-[(5-chloro-1H-indazol-3-ylmethyl)amino]-ethyl}-3-oxo-3,4-dihydro-pyrazin-2-ylamino)-ethyl]-piperidin-1-yl}-acetamide], the Ki lay in the range of 0.005 to 0.03 µM.

On to `O=C(O)CN1CCCCC1CCNc1ncc(Cl)n(CCNCc2n[nH]c3ccc(Cl)cc23)c1=O` (stereo not shown) [Example 97, {2-[2-(5-Chloro-4-{2-[(5-chloro-1H-indazol-3-ylmethyl)-amino]-ethyl}-3-oxo-3,4-dihydro-pyrazin-2-ylamino)-ethyl]-piperidin-1-yl}acetic acid], for which the inhibitory constant (Ki) was less than 0.005 µM.

Molecule `Cc1cnc(NCCc2ccccn2)c(=O)n1CCNCCc1nc2ccc(Cl)cc2[nH]1` [Example 99] came in with a Ki of 0.03 to 0.2 µM.

In turn, `Cc1cnc(NCCC2CCCCN2)c(=O)n1CCNCc1cccc(Cl)c1` (stereo not shown) [Example 102] returned a Ki of 0.005 to 0.03 µM.
